From US20240116946A1 (Gilead Sciences, Inc., priority 2022, published 2024)
Read-outs that look alike come from different tables or passages of the source.

Legend:
[1] = molecular target: recombinant SARS-CoV-2 Main protease (Mpro) (Severe acute respiratory syndrome coronavirus 2 (2019-nCoV) (SARS-CoV-2), UniProt P0DTD1); assay: Cov Mpro Biochemical IC50 Assay
SARS-CoV-2-NLuc = assay: microbe, parasite or virus in culture; type: cell-based, SARS Coronavirus 2
[2] = recombinant SARS-CoV-2 Mpro, fluorogenic peptide substrate, read-out: MPro IC50
[3] = Severe acute respiratory syndrome coronavirus, 48 h, read-out: MPro EC50
[4] = recombinant SARS-CoV-2 Mpro 7.5 nM, fluorogenic peptide substrate 40 μM, read-out: MPro IC50
[5] = Severe acute respiratory syndrome coronavirus, 48 h; read-out: MPro EC50

Compound	IC50 [1, 2] [nM]	EC50 (SARS-CoV-2-NLuc; [3]) [nM]	IC50 [1, 4] [nM]	also measured
Cn1cc2cc(-c3cccc(Cl)c3-c3ccc4c(=O)n(-c5cncc6ccccc56)c(=O)[nH]c4c3)ccc2n1 [Example 247]	63	30.4		
COc1cc(-c2cc3c(s2)c(=O)n(-c2cncc(Cl)c2C)c(=O)n3CCC#N)c(Cl)cc1F [Example 927, 3-[6-(2-chloro-4-fluoro-5-methoxy-phenyl)-3-(5-chloro-4-methyl-3-pyridyl)-2,4-dioxo-thieno[3,2-d]pyrimidin-1-yl]propanenitrile]		6.88	7.02	
COc1cc(-c2cc3[nH]c(=O)n(-c4cncc5ccccc45)c(=O)c3s2)c(Cl)cc1Cl [Example 342]	4.49	6.76		
COc1cnc(Cl)c(-c2cc3c(s2)c(=O)n(-c2cncc(C(F)(F)F)c2)c(=O)n3CCC#N)c1 [Example 815]			52.4	EC50 (SARS-CoV-2-NLuc; [5]): 180 nM
O=c1[nH]c2cc(-c3ccccc3Cl)sc2c(=O)n1-c1cncc2ccc(N3CCn4c(nnc4C(F)(F)F)C3)cc12 [Example 337]	< 2.68	170		
COc1cc(-c2cc3[nH]c(=O)n(-c4cncc5ccccc45)c(=O)c3s2)c(Cl)cc1C [Example 341]	5.44	4.62		
COc1ccc(Cl)c(-c2cc3[nH]c(=O)n(-c4cncc5sccc45)c(=O)c3s2)c1 [Example 607]		4.34	4.52	
O=c1c2sc(-c3ccccc3Cl)cc2n(Cc2cccnn2)c(=O)n1-c1cncc2ccccc12 [Example 154]	124	193		
COc1cc(-c2cc3[nH]c(=O)n(-c4cncc5ccccc45)c(=O)c3s2)c(C)cc1C [Example 717]		25.3	23.8	
COc1ccc(C#N)c(-c2cc3[nH]c(=O)n(-c4cncc5c(Cl)cccc45)c(=O)c3s2)c1 [Example 594]		929	883	
Cc1ccc2cncc(-n3c(=O)[nH]c4cc(-c5ccccc5Cl)sc4c3=O)c2n1 [Example 453, 6-(2-chlorophenyl)-3-(2-methyl-1,6-naphthyridin-8-yl)thieno[3,2-d]pyrimidine-2,4(1H,3H)-dione]		22.1	3.83	
Cc1cc(C#N)c(-c2cc3c(s2)c(=O)n(-c2cncc4cnn(C)c24)c(=O)n3CCC#N)cc1F [Example 786]		165	27.9	
COc1cnc(Cl)c(-c2cc3c(s2)c(=O)n(-c2cncc4nnn(C)c24)c(=O)n3CCC#N)c1 [Example 884]		126	31.4	
N#Cc1cccc(Cl)c1-c1ccc2c(=O)n(-c3cncc4ccccc34)c(=O)[nH]c2c1 [Example 98]	213	198		
COc1cc(-c2cc3c(s2)c(=O)n(-c2cncc4nn(C)c(C)c24)c(=O)n3CCC#N)c(Cl)cc1F (single isomer, unassigned) [Example 1042, 3-(6-(2-chloro-4-fluoro-5-methoxyphenyl)-3-(2,3-dimethyl-2H-pyrazolo[3,4-c]pyridin-4-yl)-2,4-dioxo-3,4-dihydrothieno[3,2-d]pyrimidin-1(2H)-yl)propanenitrile]			> 1000	EC50 (SARS-CoV-2-NLuc; read-out: MPro EC50): > 1000 nM
Cc1c2c(-n3c(=O)c4sc(-c5ccc(F)cc5Cl)cc4n(CCC#N)c3=O)cncc2nn1C (single isomer, unassigned) [Example 971, 3-(6-(2-chloro-4-fluorophenyl)-3-(2,3-dimethyl-2H-pyrazolo[3,4-c]pyridin-4-yl)-2,4-dioxo-3,4-dihydrothieno[3,2-d]pyrimidin-1(2H)-yl)propanenitrile]			13	EC50 (SARS-CoV-2-NLuc; read-out: MPro EC50): 55.8 nM
Cc1ccc(Cl)c(-c2ccc3c(=O)n(-c4cncc5ccccc45)c(=O)[nH]c3c2)c1 [Example 252]	151	321		
COc1cc(-c2cc3c(s2)c(=O)n(-c2cncc(N(C)C)c2)c(=O)n3CCC#N)c(Cl)cc1F [Example 874]		204	41.4	
N#Cc1cccc(-c2ccc3c(=O)n(-c4cncc5ccccc45)c(=O)[nH]c3c2)c1 [Example 34]	1520	6530		
Cc1cn(C)nc1-c1cccc(Cl)c1-c1cc2[nH]c(=O)n(-c3cncc4ccccc34)c(=O)c2s1 [Example 519]		31.6	10.9	
N#Cc1cccc(-c2cccc(Cl)c2-c2ccc3c(=O)n(-c4cncc5ccccc45)c(=O)[nH]c3c2)c1 [Example 184]	92.5	40		
COc1ccc(Cl)c(-c2cc3[nH]c(=O)n(-c4cncc5sc(C(C)(C)O)cc45)c(=O)c3s2)c1 [Example 515]		17.5	8.51	
Cc1cc(-c2cccc(Cl)c2-c2cc3[nH]c(=O)n(-c4cncc(C5CC5)c4)c(=O)c3s2)cn2ncnc12 [Example 618]		16	6.56	
Cc1ccc(-c2cc3[nH]c(=O)n(-c4cncc5ccccc45)c(=O)c3s2)c(Cl)c1 [Example 339]	14.8	48.2		
Cc1c(Cl)cccc1-c1cc2[nH]c(=O)n(-c3cncc4ccccc34)c(=O)c2s1 [Example 12]	7450	943		

Compound	IC50 [1, 2] [nM]	EC50 (SARS-CoV-2-NLuc; [3]) [nM]	IC50 [1, 4] [nM]	also measured
Cc1c(-c2ccccc2Cl)sc2[nH]c(=O)n(-c3cncc4ccccc34)c(=O)c12 [Example 75]	854	9390		
Cc1cccc(C#N)c1-c1cc2c(s1)c(=O)n(-c1cncc3cnn(C)c13)c(=O)n2CCC#N [Example 783]		455	199	
COc1ccc(C#N)c(-c2cc3[nH]c(=O)n(-c4cncc5ncsc45)c(=O)c3s2)c1 [Example 484]		482	38.9	
Cn1ncc2cncc(-n3c(=O)[nH]c4cc(-c5c(Cl)cc(Cl)c6c5CCO6)sc4c3=O)c21 [Example 656]			12	EC50 (SARS-CoV-2-NLuc; [5]): 23.9 nM
O=c1[nH]c2cc(-c3ccccc3Cl)sc2c(=O)n1-c1cncc(OCC(F)(F)F)c1 [Example 381]	5070	145		
CC(C)(O)[C@H](F)CNc1ccc2cncc(-n3c(=O)[nH]c4cc(-c5ccccc5Cl)sc4c3=O)c2c1 [Example 386]	3.96	56.2		
O=c1[nH]c2cc(-c3ccccc3Cl)sc2c(=O)n1-c1cncc2ccccc12 (single isomer, unassigned) [Example 151, 6-(2-chlorophenyl)-3-(isoquinolin-4-yl)thieno[3,2-d]pyrimidine-2,4(1H,3H)-dione]	< 2.54			EC50 (SARS-CoV-2-NLuc; read-out: MPro EC50): 1.73 nM
O=c1c2ccc(-c3ccccc3Cl)cc2[nH]c(=S)n1-c1cncc2ccccc12 [Example 239]				IC50 ([1]; MPro IC50, recombinant SARS-CoV-2 Mpro, fluorogenic peptide substrate): 4840 nM; EC50 (SARS-CoV-2-NLuc; [5]): 1820 nM
O=c1[nH]c2cc(-c3c(Cl)cccc3Cl)sc2c(=O)n1-c1cncc2ccccc12 [Example 110, 6-(2,6-dichlorophenyl)-3-(isoquinolin-4-yl)thieno[3,2-d]pyrimidine-2,4(1H,3H)-dione]	372			EC50 (SARS-CoV-2-NLuc; [5]): 275 nM
O=c1[nH]c2cc(-c3cc(Cl)c(F)cc3Cl)sc2c(=O)n1-c1cncc2ccccc12 [Example 726]		39	22.8	
Cn1ccc(-c2cccc(Cl)c2-c2ccc3c(=O)n(-c4cncc5ccccc45)c(=O)[nH]c3c2)n1 [Example 146]	99.7	60.6		
O=c1[nH]c2cc(-c3ccccc3Cl)sc2c(=O)n1-c1cncc2ccc(N3CCO[C@H](C(F)(F)F)C3)cc12 [Example 417]		160	17.8	
COc1cc(-c2cc3[nH]c(=O)n(-c4cc(C(F)(F)F)cnn4)c(=O)c3s2)c(Cl)cc1F [Example 748]			50.2	EC50 (SARS-CoV-2-NLuc; [5]): 86.5 nM
COc1ccc(Cl)c(-c2cc3[nH]c(=O)n(-c4cncc5ccc(C(=O)N6CCOCC6)cc45)c(=O)c3s2)c1 [Example 566, 6-(2-chloro-5-methoxy-phenyl)-3-[6-(morpholine-4-carbonyl)-4-isoquinolyl]-1H-thieno[3,2-d]pyrimidine-2,4-dione]		20.8	9.83	
Cn1cc2ccc(-c3cccc(Cl)c3-c3ccc4c(=O)n(-c5cncc6ccccc56)c(=O)[nH]c4c3)cc2n1 [Example 248]	87.2	40.1		
COc1cc(-c2cc3[nH]c(=O)n(-c4cncc5cc(C(=O)N(C)C)sc45)c(=O)c3s2)c(Cl)cc1F [Example 1010, 7-[6-(2-chloro-4-fluoro-5-methoxy-phenyl)-2,4-dioxo-1H-thieno[3,2-d]pyrimidin-3-yl]-N,N-dimethyl-thieno[3,2-c]pyridine-2-carboxamide]		69.2	3.29	
CC(C)Oc1cncc(-n2c(=O)[nH]c3cc(-c4ccccc4Cl)sc3c2=O)c1 [Example 382]	4600	208		
O=c1c2sc(-c3ccccc3Cl)cc2n(Cc2ccnnc2)c(=O)n1-c1cncc2ccccc12 [Example 155]	9.13	125		
COc1ccc(-c2cc3[nH]c(=O)n(-c4cncc5ccccc45)c(=O)c3s2)c(C#N)c1 [Example 539]		675	141	
COc1cnc(C#N)c(-c2ccc3c(=O)n(-c4cncc5ccccc45)c(=O)[nH]c3c2)c1 [Example 333]	149	765		
O=C(C1CC1)N1CCN(c2ccc3cncc(-n4c(=O)[nH]c5cc(-c6ccccc6Cl)sc5c4=O)c3c2)CC1 [Example 423]		53.7	6.5	
COc1cc(-c2cc3c(s2)c(=O)n(-c2cncc4ccsc24)c(=O)n3CC2(C#N)CC2)c(Cl)cc1F [Example 655]		3.31	3.4	
COc1cc(-c2ccc3c(=O)n(-c4cncc5ccccc45)c(=O)n(CC#N)c3c2)c(Cl)cc1F [Example 897]		85.4	11.2	
Cc1nn(CC(F)(F)F)cc1-c1cccc(Cl)c1-c1ccc2c(=O)n(-c3cncc4ccccc34)c(=O)[nH]c2c1 [Example 285]	19.2	25.5		
COc1ccc(C#N)c(-c2cc3c(cc2F)c(=O)n(-c2cncc4ccccc24)c(=O)n3CC#N)c1 (atropisomer, axis not shown) [Example 701]		79.9	< 3.63	
